The values below come from patent publication US5902812A, “Pharmaceutical piperazine compounds” (Xenova Limited, priority 1994, dated 1999).

Where two headings read alike, the source gives them in different places.

The target of this test is PAI-1 (Homo sapiens, UniProt P05121). Nature of the test: biochemical. Particulars: for IC50: PAI chromogenic substrate assay, read-out: IC50.
Sequence of PAI-1 (P05121 24-402): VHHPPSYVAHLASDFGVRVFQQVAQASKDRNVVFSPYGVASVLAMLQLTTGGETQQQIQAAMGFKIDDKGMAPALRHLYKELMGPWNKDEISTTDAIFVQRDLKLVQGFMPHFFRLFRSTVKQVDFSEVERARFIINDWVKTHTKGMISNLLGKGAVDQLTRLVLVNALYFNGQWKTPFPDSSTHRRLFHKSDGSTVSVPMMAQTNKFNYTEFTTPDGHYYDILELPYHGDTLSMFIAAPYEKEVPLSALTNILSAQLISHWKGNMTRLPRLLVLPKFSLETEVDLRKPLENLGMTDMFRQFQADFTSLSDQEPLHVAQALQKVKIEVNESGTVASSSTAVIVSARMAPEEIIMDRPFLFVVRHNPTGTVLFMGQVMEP

Procedure: In this assay, a compound is incubated with PAI-1 prior to addition to the tPA assay system. Inhibition of PAI-1 results in the production of plasmin from plasminogen. In turn, plasmin cleaves the chromogenic substrate S2251 (Kabi Vitrum) producing pNA (p-nitroaniline) which is detected spectrophotometrically at 405 nm (K. Nilsson et al, Fibrinolysis (1987) 1, 163-168).
Compounds of formula (A) were tested in a PAI chromogenic substrate assay. In the assay (K.Nilsson, Fibrinolysis (1987) 1, 163-168) each compound was incubated with PAI-1 prior to addition to the tPA assay system. […] In turn, the plasmin cleaved the chromogenic substrate S2251 (Kabi-Vitrum) producing pNA (p-nitroaniline) which was detected spectrophotometrically at 405 nm.

`CN(C)CCOc1ccc(/C=c2\[nH]c(=O)/c(=C/c3ccccc3)[nH]c2=O)cc1` [Compound 1961, (3Z,6Z)-3-Benzylidene-6-(4-(2-dimethylaminoethoxy)benzylidene)-2,5-piperazinedione]: the inhibition at 3.75 µM (3.75 μM, read-out: Degree of inhibition in PAI chromogenic substrate assay) is 1%. The inhibition at 7.5 µM (7.5 μM, read-out: Degree of inhibition in PAI chromogenic substrate assay) is 11%. Moreover, the inhibition at 15 µM (15 μM, read-out: Degree of inhibition in PAI chromogenic substrate assay) was 41%. The inhibition at 30 µM (30 μM, read-out: Degree of inhibition in PAI chromogenic substrate assay) was found to be 49%. In addition, where the note is “60 μM, read-out: Degree of inhibition in PAI chromogenic substrate assay”, the inhibition at 60 µM came to 48%.

Turning to `CN(C)CCCOc1ccc(/C=c2\[nH]c(=O)/c(=C/c3ccc(C#N)cc3)[nH]c2=O)cc1` [Compound 5245], the IC50 was determined as 1.8 µM.

With `CN(C)CCOc1ccc(/C=c2\[nH]c(=O)/c(=C/c3ccccc3)[nH]c2=O)cc1` [Compound 1908, (3Z,6Z)-3-Benzylidene-6-(4-(2-dimethylaminoethoxy)benzylidene)-2,5-piperazinedione], the Degree of inhibition in PAI chromogenic substrate assay was 12% (6.25 μM); 29% (12.5 μM); 66% (25 μM); 69% (50 μM); 74% (100 μM).

In the case of `CN(C)CCCOc1ccc(/C=c2\[nH]c(=O)/c(=C/c3ccc(C(C)(C)C)cc3)[nH]c2=O)cc1` [Compound 5238, (3Z,6Z)-3-(4-(3-Dimethylaminopropoxy)benzylidene)-6-(4-tert-butylbenzylidene)-2,5-piperazinedione], the inhibition at 20 µM (20 μM (third part of Table 1), read-out: Degree of inhibition in PAI chromogenic substrate assay) is 3%. The inhibition at 100 µM (100 μM (third part of Table 1), read-out: Degree of inhibition in PAI chromogenic substrate assay) came out at 36%.

Take `CN(C)CCCOc1ccc(/C=c2\[nH]c(=O)/c(=C/c3ccccc3[N+](=O)[O-])[nH]c2=O)cc1` [Compound 5210, (3Z,6Z)-6-(4-(3-Dimethylaminopropoxy)benzylidene)-3-(2-nitrobenzylidene)-2,5-piperazinedione]: the concentration for half-maximal inhibition (IC50) was 67 µM.

For the molecule `CN(C)CCCOc1ccc(/C=c2\[nH]c(=O)/c(=C/c3ccccc3)[nH]c2=O)cc1` [Compound 1852, (3Z,6Z)-6-Benzylidene-3-(4-(3-dimethylaminopropoxy)benzylidene)-2,5-piperazinedione], where the note is “6.25 μM, read-out: Degree of inhibition in PAI chromogenic substrate assay”, the inhibition at 6.25 µM was 4%. Moreover, where the note is “12.5 μM, read-out: Degree of inhibition in PAI chromogenic substrate assay”, the inhibition at 12.5 µM came out at 67%. Moreover, the inhibition at 25 µM (25 μM, read-out: Degree of inhibition in PAI chromogenic substrate assay) is 74%. Besides, the inhibition at 50 µM (50 μM, read-out: Degree of inhibition in PAI chromogenic substrate assay) was determined as 71%. Moreover, the inhibition at 100 µM (100 μM, read-out: Degree of inhibition in PAI chromogenic substrate assay) amounted to 72%.

By inhibition is commonly meant how much of the control response was suppressed. The IC50 is the concentration that gives 50% inhibition.
